Reference: ChEMBL document CHEMBL3045264, “Synthesis and antimicrobial activity of 5-((3-aryl-1-phenyl-1H-pyrazol-4-yl)methylene)thiazolidine-2,4-diones” (2012)
≈ marks a conversion by molar mass, not a printed value. Calls of active or inactive are those of the source. The calls are words filed in the database; no cut-off is given here.

Experiments:
Aspergillus niger = assay: Growth inhibition of Aspergillus niger at 4 mg/ml after 7 days by poisoned food technique; format: functional; details: 168 h, read-out: GI
Aspergillus flavus = assay: Growth inhibition of Aspergillus flavus at 4 mg/ml after 7 days by poisoned food technique; format: functional; details: 168 h, read-out: GI
Bacillus subtilis [1] = assay: Antibacterial activity against Bacillus subtilis MTCC 121 after 24 hr by macro dilution tube method; format: functional; details: MTCC 121, 24 h
Staphylococcus aureus [2] = assay: Antibacterial activity against Staphylococcus aureus MTCC 96 after 24 hr by macro dilution tube method; format: functional; details: MTCC 96, 24 h
Escherichia coli = assay: Antibacterial activity against Escherichia coli MTCC 1652 at 4 mg/ml after 24 hr by agar well diffusion method; format: functional, organism-based
Bacillus subtilis [3] = assay: Antibacterial activity against Bacillus subtilis MTCC 121 at 4 mg/ml after 24 hr by agar well diffusion method; format: functional; details: MTCC 121, 24 h, read-out: DIZ
Staphylococcus aureus [4] = assay: Antibacterial activity against Staphylococcus aureus MTCC 96 at 4 mg/ml after 24 hr by agar well diffusion method; format: functional; details: MTCC 96, 24 h, read-out: DIZ
Pseudomonas aeruginosa [5] = details: MTCC 741, 4 mg/ml
Description: (§1) Antibacterial activity against Pseudomonas aeruginosa MTCC 741 at 4 mg/ml after 24 hr by agar well diffusion method

Pseudomonas aeruginosa [6] = assay: microbe, parasite or virus in culture; details: MTCC 741, 24 h, read-out: DIZ
Description: as §1

Compound	inhibition of growth at 4000 µg/mL (Aspergillus niger)	inhibition of growth at 4000 µg/mL (Aspergillus flavus)	MIC (Bacillus subtilis [1])	MIC (Staphylococcus aureus [2])	diameter of the inhibition zone (DIZ) (Escherichia coli)	zone of inhibition at 4000 µg/mL (Bacillus subtilis [3])	zone of inhibition at 4000 µg/mL (Staphylococcus aureus [4])	DIZ (Pseudomonas aeruginosa [5])	zone of inhibition at 4000 µg/mL (Pseudomonas aeruginosa [6])
O=C1NC(=O)/C(=C/c2cn(-c3ccccc3)nc2-c2ccc(F)cc2)S1	82.5%	78.8%	32 µg/mL (≈ 87.6 µM)	32 µg/mL (≈ 87.6 µM)	inactive	21.6 mm	20.6 mm	inactive	–
O=C1NC(=O)/C(=C/c2cn(-c3ccccc3)nc2-c2ccc(O)cc2)S1	55.5%	54.4%	128 µg/mL (≈ 352 µM)	128 µg/mL (≈ 352 µM)	inactive	14.6 mm	15 mm	inactive	–
O=C1NC(=O)/C(=C/c2cn(-c3ccccc3)nc2-c2ccc(Br)cc2)S1	61.1%	62.5%	32 µg/mL (≈ 75.1 µM)	64 µg/mL (≈ 150 µM)	inactive	21.6 mm	18.6 mm	inactive	–
OC(Cn1cncn1)(Cn1cncn1)c1ccc(F)cc1F [FLUCONAZOLE]	81.1%	77.7%	–	–	–	–	–	–	–
O=C(O)c1cn(C2CC2)c2cc(N3CCNCC3)c(F)cc2c1=O [CIPROFLOXACIN]	–	–	5 µg/mL (≈ 15.1 µM)	5 µg/mL (≈ 15.1 µM)	–	24 mm	26 mm	–	22 mm
O=C1NC(=O)/C(=C/c2cn(-c3ccccc3)nc2-c2ccc([N+](=O)[O-])cc2)S1	61.1%	63.3%	32 µg/mL (≈ 81.6 µM)	16 µg/mL (≈ 40.8 µM)	inactive	21.3 mm	23.6 mm	inactive	–
O=C1NC(=O)/C(=C/c2cn(-c3ccccc3)nc2-c2ccccc2)S1	62.5%	60%	128 µg/mL (≈ 368 µM)	32 µg/mL (≈ 92.1 µM)	inactive	16 mm	20.3 mm	inactive	–
COc1ccc(-c2nn(-c3ccccc3)cc2/C=C2\SC(=O)NC2=O)cc1	60%	57.7%	128 µg/mL (≈ 339 µM)	128 µg/mL (≈ 339 µM)	inactive	14.3 mm	13.6 mm	inactive	–
O=C1NC(=O)/C(=C/c2cn(-c3ccccc3)nc2-c2ccc(Cl)cc2)S1	65.5%	60%	128 µg/mL (≈ 335 µM)	128 µg/mL (≈ 335 µM)	inactive	15 mm	14.3 mm	inactive	–
Cc1ccc(-c2nn(-c3ccccc3)cc2/C=C2\SC(=O)NC2=O)cc1	68.8%	65.5%	128 µg/mL (≈ 354 µM)	128 µg/mL (≈ 354 µM)	inactive	15.6 mm	16.3 mm	inactive	–
